This note sets out measurements from patent US9096602B2, “Substituted pyrrolo[2,3-B]pyrazines as ATR kinase inhibitors” (Vertex Pharmaceuticals Incorporated, priority 2011, dated 2015).

In one assay the target is T1, ATR kinase (full-length ATR) (Homo sapiens, UniProt Q13535).
T1 construct: Assays were carried out at 25° C. in the presence of 5 nM full-length ATR
T1 sequence (Q13535 whole entry): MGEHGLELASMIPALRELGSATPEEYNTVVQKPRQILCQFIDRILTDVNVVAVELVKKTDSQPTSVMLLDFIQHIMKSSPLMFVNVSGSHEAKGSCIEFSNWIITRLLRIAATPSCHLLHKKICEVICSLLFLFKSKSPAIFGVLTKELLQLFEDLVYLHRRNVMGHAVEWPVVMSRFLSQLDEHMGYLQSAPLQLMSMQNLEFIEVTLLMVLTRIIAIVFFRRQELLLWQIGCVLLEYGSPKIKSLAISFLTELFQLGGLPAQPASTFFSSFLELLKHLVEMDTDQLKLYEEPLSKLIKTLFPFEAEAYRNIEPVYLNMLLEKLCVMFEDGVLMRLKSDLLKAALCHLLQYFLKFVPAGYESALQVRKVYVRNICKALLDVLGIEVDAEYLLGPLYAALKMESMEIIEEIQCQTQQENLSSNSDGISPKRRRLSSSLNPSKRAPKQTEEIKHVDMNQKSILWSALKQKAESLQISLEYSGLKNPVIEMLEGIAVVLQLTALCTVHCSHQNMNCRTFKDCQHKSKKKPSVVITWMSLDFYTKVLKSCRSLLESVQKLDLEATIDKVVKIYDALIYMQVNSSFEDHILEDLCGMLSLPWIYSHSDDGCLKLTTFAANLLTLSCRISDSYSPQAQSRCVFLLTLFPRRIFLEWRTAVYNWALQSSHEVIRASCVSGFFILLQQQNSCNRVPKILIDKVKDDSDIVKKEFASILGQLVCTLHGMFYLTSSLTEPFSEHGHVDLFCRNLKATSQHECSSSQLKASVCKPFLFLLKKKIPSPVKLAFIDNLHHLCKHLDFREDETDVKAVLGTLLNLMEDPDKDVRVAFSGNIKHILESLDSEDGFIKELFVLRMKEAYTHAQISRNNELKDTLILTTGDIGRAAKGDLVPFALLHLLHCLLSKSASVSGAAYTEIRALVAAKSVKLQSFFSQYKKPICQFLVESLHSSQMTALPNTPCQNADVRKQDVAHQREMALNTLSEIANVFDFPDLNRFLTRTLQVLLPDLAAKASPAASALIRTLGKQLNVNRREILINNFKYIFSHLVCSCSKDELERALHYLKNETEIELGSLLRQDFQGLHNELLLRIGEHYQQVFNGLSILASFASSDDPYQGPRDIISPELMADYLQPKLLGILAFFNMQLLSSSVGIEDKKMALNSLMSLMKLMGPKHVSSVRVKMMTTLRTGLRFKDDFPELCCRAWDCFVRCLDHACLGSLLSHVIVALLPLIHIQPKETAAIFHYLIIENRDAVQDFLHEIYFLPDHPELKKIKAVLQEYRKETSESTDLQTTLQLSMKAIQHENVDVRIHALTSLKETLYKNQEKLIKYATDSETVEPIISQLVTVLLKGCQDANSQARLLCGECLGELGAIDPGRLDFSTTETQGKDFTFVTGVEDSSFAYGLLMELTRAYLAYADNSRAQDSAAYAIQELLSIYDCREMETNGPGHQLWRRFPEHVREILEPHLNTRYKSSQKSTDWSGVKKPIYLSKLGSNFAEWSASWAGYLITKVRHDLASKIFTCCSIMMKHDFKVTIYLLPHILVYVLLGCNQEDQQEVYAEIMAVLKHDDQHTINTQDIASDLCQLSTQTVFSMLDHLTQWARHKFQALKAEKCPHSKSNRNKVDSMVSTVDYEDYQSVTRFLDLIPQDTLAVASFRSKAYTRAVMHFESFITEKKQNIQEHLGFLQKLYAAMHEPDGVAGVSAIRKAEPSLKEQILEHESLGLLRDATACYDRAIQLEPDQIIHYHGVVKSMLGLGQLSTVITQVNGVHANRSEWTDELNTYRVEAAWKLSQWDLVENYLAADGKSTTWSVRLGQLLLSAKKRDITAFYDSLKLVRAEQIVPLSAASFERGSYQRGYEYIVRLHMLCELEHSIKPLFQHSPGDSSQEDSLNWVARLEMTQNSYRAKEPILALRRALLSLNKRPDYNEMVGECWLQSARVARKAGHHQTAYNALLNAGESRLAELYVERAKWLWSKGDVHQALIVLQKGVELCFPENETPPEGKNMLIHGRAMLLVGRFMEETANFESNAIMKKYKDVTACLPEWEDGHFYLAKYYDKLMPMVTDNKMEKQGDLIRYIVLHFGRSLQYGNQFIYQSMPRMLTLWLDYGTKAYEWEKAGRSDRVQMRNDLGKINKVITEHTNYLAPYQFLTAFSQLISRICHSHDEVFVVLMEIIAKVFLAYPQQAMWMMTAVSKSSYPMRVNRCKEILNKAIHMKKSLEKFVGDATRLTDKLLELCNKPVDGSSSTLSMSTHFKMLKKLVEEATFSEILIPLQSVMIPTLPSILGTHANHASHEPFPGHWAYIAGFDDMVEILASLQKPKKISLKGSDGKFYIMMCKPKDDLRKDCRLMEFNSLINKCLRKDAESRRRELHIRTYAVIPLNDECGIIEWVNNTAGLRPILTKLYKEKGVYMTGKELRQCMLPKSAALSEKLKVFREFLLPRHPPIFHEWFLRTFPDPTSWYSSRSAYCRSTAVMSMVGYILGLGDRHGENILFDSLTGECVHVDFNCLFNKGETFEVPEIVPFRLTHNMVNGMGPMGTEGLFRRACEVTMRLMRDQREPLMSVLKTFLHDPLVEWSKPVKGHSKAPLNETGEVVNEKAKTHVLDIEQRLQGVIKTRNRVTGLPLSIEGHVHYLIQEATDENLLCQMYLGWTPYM
As to the kind of experiment: ATR Inhibition Assay (radioactive-phosphate incorporation). Type of assay: biochemical. The note with it: Ki(app); 5 nM full-length ATR, 10 μM ATP, 800 μM target peptide, 25° C.; class symbols; read-out: ATR Inhibition Ki. The gist of the method: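 Radiometric 33P filter assay with 5 nM full-length ATR in 50 mM Tris/HCl pH 7.5, 10 mM MgCl2, 1 mM DTT at 25 °C. Final 10 μM [γ-33P]ATP and 800 μM peptide; 10 min compound preincubation, ATP start, stopped at 24 h with phosphoric acid/ATP. Ki(app) from non-linear regression of background-corrected initial rates.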
`CC(C)S(=O)(=O)c1ccc(-c2cnc3[nH]cc(C(=O)NC(CCO)c4cccc(O)c4)c3n2)cc1` (stereo not shown) [Compound I-77, N-[3-hydroxy-1-(3-hydroxyphenyl)propyl]-2-(4-isopropylsulfonylphenyl)-5H-pyrrolo[2,3-b]pyrazine-7-carboxamide]: the Ki lay in the range of 100 to 500 nM.
Still for that read-out and setting: the same measure for `CC(C)S(=O)(=O)c1ccc(-c2cnc3[nH]cc(C(=O)N[C@H](C)[C@@H](O)c4ccc(O)cc4)c3n2)cc1` [Compound I-84, N-[(1R,2S)-2-hydroxy-2-(4-hydroxyphenyl)-1-methyl-ethyl]-2-(4-isopropylsulfonylphenyl)-5H-pyrrolo[2,3-b]pyrazine-7-carboxamide]: 100 to 500 nM.
Take `CC(C)S(=O)(=O)c1ccc(-c2cnc3[nH]cc(C(=O)NCc4ccccc4)c3n2)cc1` [Compound I-1, N-benzyl-2-(4-isopropylsulfonylphenyl)-5H-pyrrolo[2,3-b]pyrazine-7-carboxamide]: the Ki was under 100 nM.
Regarding `CC(C)S(=O)(=O)c1ccc(-c2cnc3[nH]cc(C(=O)NCc4cccnc4)c3n2)cc1` [Compound I-59, 2-(4-isopropylsulfonylphenyl)-N-(3-pyridylmethyl)-5H-pyrrolo[2,3-b]pyrazine-7-carboxamide], the Ki lay in the range of 100 to 500 nM.
Take `CC(C)S(=O)(=O)c1ccc(-c2cnc3[nH]cc(C(=O)Nc4ccncc4)c3n2)cc1` [Compound I-6, 2-(4-isopropylsulfonylphenyl)-N-(4-pyridyl)-5H-pyrrolo[2,3-b]pyrazine-7-carboxamide]: the Ki lay within 100 to 500 nM.
Turning to `CC(C)S(=O)(=O)c1ccc(-c2cnc3[nH]cc(C(=O)Nc4ccc(C#N)cc4)c3n2)cc1` [Compound I-14, N-(4-cyanophenyl)-2-(4-isopropylsulfonylphenyl)-5H-pyrrolo[2,3-b]pyrazine-7-carboxamide], the Ki was 500 to 5000 nM.
With `CC(C)S(=O)(=O)c1ccc(-c2cnc3[nH]cc(C(=O)N4CCC(O)C4)c3n2)cc1` (stereo not shown) [Compound I-28, (3-hydroxypyrrolidin-1-yl)-[2-(4-isopropylsulfonylphenyl)-5H-pyrrolo[2,3-b]pyrazin-7-yl]methanone], the Ki is 500 to 5000 nM.
The same measure, in the same setting: next, `CC(C)S(=O)(=O)c1ccc(-c2cnc3[nH]cc(C(=O)Nc4ccc(N)cc4)c3n2)cc1` [Compound I-18, N-(4-aminophenyl)-2-(4-isopropylsulfonylphenyl)-5H-pyrrolo[2,3-b]pyrazine-7-carboxamide]: under 100 nM; `CC(C)S(=O)(=O)c1ccc(-c2cnc3[nH]cc(C(=O)N[C@H]4c5ccccc5C[C@H]4O)c3n2)cc1` [Compound I-69, N-[(1S,2R)-2-hydroxyindan-1-yl]-2-(4-isopropylsulfonylphenyl)-5H-pyrrolo[2,3-b]pyrazine-7-carboxamide]: under 100 nM; `Cc1cccc(Cl)c1CNC(=O)c1c[nH]c2ncc(-c3ccc(S(=O)(=O)C(C)C)cc3)nc12` [Compound I-54, N-[(2-chloro-6-methyl-phenyl)methyl]-2-(4-isopropylsulfonylphenyl)-5H-pyrrolo[2,3-b]pyrazine-7-carboxamide]: under 100 nM.
On to `CC(C)S(=O)(=O)c1ccc(-c2cnc3[nH]cc(C(=O)NCC4CCC4)c3n2)cc1` [Compound I-29, N-(cyclobutylmethyl)-2-(4-isopropylsulfonylphenyl)-5H-pyrrolo[2,3-b]pyrazine-7-carboxamide], for which the Ki was under 100 nM.

The assay is the same for the next values; noted with them: Ki(app); 5 nM full-length ATR, 10 μM ATP, 800 μM target peptide, 25° C.; given as numeric lower bound without unit; read-out: ATR Inhibition Ki.
For the compound `CC(C)S(=O)(=O)c1ccc(-c2cnc3[nH]cc(C(=O)N4CCC(CO)CC4)c3n2)cc1` [Compound I-32, [4-(hydroxymethyl)-1-piperidyl]-[2-(4-isopropylsulfonylphenyl)-5H-pyrrolo[2,3-b]pyrazin-7-yl]methanone], the Ki is over 4000 nM.
Take `CC(C)S(=O)(=O)c1ccc(-c2cnc3[nH]cc(C(=O)N4CCCNCC4)c3n2)cc1` [Compound I-136, 1,4-diazepan-1-yl-[2-(4-isopropylsulfonylphenyl)-5H-pyrrolo[2,3-b]pyrazin-7-yl]methanone]: the Ki was over 250 nM.
